Results from patent publication EP2266963A1, “Fluorogenic peptidase substrate” (ECOLE NORMALE SUPERIEURE DE LYON, priority 2009, dated 2010).

Columns and labels:
[1] = tested on: leucyl aminopeptidase; experiment: Time-dependent fluorescence signal evolution with pure enzyme in LB medium, with or without inhibitor; type: biochemical; settings: 37°C
Experimental: Scheme 3 presents the reaction cascade initiated by cleavage of the substrate 1 or 2 by a target peptidase. [drawing 5] • Figure 1 (ordinate in arbitrary fluorescence units a.u.) represents the emission spectra (λexc = 365 nm) of substrate 2 (20 µM) before (curve a) and after incubation with leucyl aminopeptidase for 1 h (curve b) at 25 °C in Tris-HCl buffer. The experiment was monitored with a standard multi-well plate fluorescence spectrophotometer (Spectramax Gemini by Molecular Devices). • Figure 2 presents a fluorogenic test (λexc = 365 nm, λem = 495 nm) at 25 °C for the activity of leucyl aminopeptidase in Tris-HCl (25 mM, pH 7.4) using 38 µM of substrate 1 or 2 , and 0.02 U mL^-1 of leucyl aminopeptidase. The following curves for time-dependent fluorescence signal evolution were obtained : (a) substrate 2 with enzyme, (b) substrate 1 with enzyme (c) substrate 2 without enzyme but with added bovine serum albumin (0.1 mg mL^-1), (d) substrate 1 without enzyme but with added bovine serum albumin (0.1 mg mL^-1). • Figure 3 presents the time-dependent signal evolution obtained with pure enzyme in complex LB (Lysogeny broth) medium (from Fisher, "LB Broth Lennox", ref 240230) rather than in pure buffer (TRIS-HCl).
(§1) Substrate 2 concentration : 6 µM; enzyme : leucyle aminopeptidase (0.01 U); 37°C; LB medium; emission wavelength : 495 nm; Spectramax Gemini from Molecular Device.
Figure 4 presents the time-dependent signal evolution obtained with pure enzyme in LB medium in the presence or absence of a standard aminopeptidase inhibitor (bestatine).
Substrate 2 concentration : 6 µM; enzyme : leucyle aminopeptidase (0.01 U); inhibitor concentration : 10 nM; 37°C; LB medium; emission wavelength : 495 nm ;

[2] = tested on: bacterial cell line : DH5a; experiment: Incubation of substrate with bacterial cells at wild-type aminopeptidase level in LB medium; type: cell-based, E-Coli; settings: Figure 5, 6 µM substrate added in exponential growth phase (absorbance 0.6 to 0.8), 37°C, emission 495 nm
Experimental: (§2) Substrate 2 concentration : 6 µM; bacterial cell line : DH5a (Invitrogen); 37°C; LB medium; emission wavelength : 495 nm. Substrate 2 is added during the exponential growth phase at an absorbance of 0.6 to 0.8.

[3] = tested on: leucyl aminopeptidase; experiment: Fluorogenic test for leucyl aminopeptidase activity in Tris-HCl buffer; type: biochemical; settings: Figure 2 curve a; substrate with enzyme; TRIS-HCl buffer 25 mM pH 7.4; 38 µM substrate; 0.02 U mL^-1 enzyme; 25 °C; λexc 365 nm, λem 495 nm
Experimental: Column chromatography was performed using silicagel Si 60 (40-63 µm). ^1H and ^13C NMR spectra were recorded at 200.13 MHz, 50.13 MHz, respectively. Chemical shifts (δ) are reported in ppm (s = singlet, d= doublet, t = triplet, m = multiplet, br = broad) and quoted with reference to tetramethyl silane or from solvent signals. NMR coupling constants (J) are reported in Hertz. Fluorescence assays were carried out in black roundbottom polypropylene 96-well-plates (NUNCLONE, Nunc Inc.) and recorded on a microplate spectrofluorimeter (Gemini XPS by Molecular Devices).
Scheme 3 presents the reaction cascade initiated by cleavage of the substrate 1 or 2 by a target peptidase. [drawing 5] • Figure 1 (ordinate in arbitrary fluorescence units a.u.) represents the emission spectra (λexc = 365 nm) of substrate 2 (20 µM) before (curve a) and after incubation with leucyl aminopeptidase for 1 h (curve b) at 25 °C in Tris-HCl buffer. The experiment was monitored with a standard multi-well plate fluorescence spectrophotometer (Spectramax Gemini by Molecular Devices). • Figure 2 presents a fluorogenic test (λexc = 365 nm, λem = 495 nm) at 25 °C for the activity of leucyl aminopeptidase in Tris-HCl (25 mM, pH 7.4) using 38 µM of substrate 1 or 2 , and 0.02 U mL^-1 of leucyl aminopeptidase. […]

[4] = Spontaneous degradation of substrate in LB medium without enzyme or cells (background fluorescence signal); type: physicochemical; settings: 37°C, emission 495 nm
Experimental: as §1, §2

| time at which fluorescence signal reaches a plateau [3] [h] | time at which fluorescence signal reaches a plateau ([1]; Figure 3, LB+E+substrate 2, 6 µM substrate, enzyme 0.01 U, emission 495 nm) | time at which signal reaches the same level as the uninhibited reaction ([1]; Figure 4, LB+E+I+substrate 2, inhibitor bestatine 10 nM, 6 µM substrate, enzyme 0.01 U) [h] | time at which fluorescence signal reaches a plateau (uninhibited reaction) ([1]; Figure 4, LB+E+substrate 2, no inhibitor, 6 µM substrate, enzyme 0.01 U, emission 495 nm) | time at which signal plateaus in the absence of enzyme ([4]; Figure 3, LB+substrate 2, 6 µM substrate) | time at which signal reaches a plateau through slow degradation of the substrate ([4]; Figure 5, LB + substrate 2, no cells, 6 µM substrate) [h] | Compound | effect of inhibitor on signal evolution ([1]; Figure 4, inhibitor 10 nM, 6 µM substrate 2, enzyme 0.01 U) | time at which signal reaches a plateau on incubation with cells [2] [h] |
| --- | --- | --- | --- | --- | --- | --- | --- | --- |
|  |  |  |  |  |  | CC(C)C[C@H](NC(=O)[C@@H](O)[C@H](N)Cc1ccccc1)C(=O)O [inhibitor (I), bestatine, reference compound] | a delay in signal evolution can be detected |  |
| 0.5 | approximately 1 hour | 2.5 | about 1.5 h | about 12 hours | 10 | CC(C)C[C@H](N)C(=O)NCCC(C)(C)C(=O)OCOc1ccccc1-c1nc2ccccc2c(=O)[nH]1 [substrate 2] |  | 2.5 |
